US20230093099A1, “COMPOUNDS AND METHODS OF TREATING CANCERS” (CULLGEN (SHANGHAI), INC., priority 2019, published 2023)

system: RS4;11 cells; assay: Cell viability assay (CellTiter-Glo) in RS4;11 cells; format: cell-based; settings: Homo sapiens, 72 h; RS4;11 cells; cell viability, 3 days, CellTiter-Glo; read-out: IC50
In short: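 RS4;11 cells seeded at 5000 per well, exposed for 3 days to 8- or 12-point 3-fold serial dilutions. Viability read by CellTiter-Glo luminescence; IC50 fitted by nonlinear least-squares regression.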

SMILES	IC50
CS(=O)(=O)c1ccc(-c2cccc3nc(Nc4ccc(N5CCN(C(=O)CNc6ccc7c(c6)C(=O)N(C6CCC(=O)NC6=O)C7=O)CC5)cc4)nn23)cc1 (stereo not shown) [JA-194, 2-(2,6-Dioxopiperidin-3-yl)-5-((2-(4-(4-((5-(4-(methylsulfonyl)phenyl)-[1,2,4]triazolo[1,5-a]pyridin-2-yl)amino)phenyl)piperazin-1-yl)-2-oxoethyl)amino)isoindoline-1,3-dione]	> 10 µM
Cc1ncsc1-c1ccc(CNC(=O)[C@@H]2C[C@@H](O)CN2C(=O)[C@@H](NC(=O)CCOCCOCCOCCOCCOCCNC(=O)CN2CCC(n3cc(-c4cnc5cccc(-c6cc(F)c(CN7CCOCC7)c(F)c6)c5n4)cn3)CC2)C(C)(C)C)cc1 [JA-159, (2S,4R)-1-((S)-23-(tert-Butyl)-1-(4-(4-(8-(3,5-difluoro-4-(morpholinomethyl)phenyl)quinoxalin-2-yl)-1H-pyrazol-1-yl)piperidin-1-yl)-2,21-dioxo-6,9,12,15,18-pentaoxa-3,22-diazatetracosan-24-oyl)-4-hydroxy-N-(4-(4-methylthiazol-5-yl)benzyl)pyrrolidine-2-carboxamide]	> 10 µM
Cc1ncsc1-c1ccc(CNC(=O)[C@@H]2C[C@@H](O)CN2C(=O)[C@@H](NC(=O)CCOCCOCCOCCOCCNC(=O)CN2CCC(n3cc(-c4cnc5cccc(-c6cc(F)c(CN7CCOCC7)c(F)c6)c5n4)cn3)CC2)C(C)(C)C)cc1 [JA-167, (2S,4R)-1-((S)-20-(tert-Butyl)-1-(4-(4-(8-(3,5-difluoro-4-(morpholinomethyl)phenyl)quinoxalin-2-yl)-1H-pyrazol-1-yl)piperidin-1-yl)-2,18-dioxo-6,9,12,15-tetraoxa-3,19-diazahenicosan-21-oyl)-4-hydroxy-N-(4-(4-methylthiazol-5-yl)benzyl)pyrrolidine-2-carboxamide]	> 10 µM
Cc1cnc(Nc2ccc(N3CCN(CC(=O)NCCCCCCC(=O)N[C@H](C(=O)N4C[C@H](O)C[C@H]4C(=O)NCc4ccc(-c5scnc5C)cc4)C(C)(C)C)CC3)cc2)nc1Nc1cccc(S(=O)(=O)NC(C)(C)C)c1 [JA-102, (2S,4R)-1-((S)-2-(7-(2-(4-(4-((4-((3-(N-(tert-Butyl)sulfamoyl)phenyl)amino)-5-methylpyrimidin-2-yl)amino)phenyl)piperazin-1-yl)acetamido)heptanamido)-3,3-dimethylbutanoyl)-4-hydroxy-N-(4-(4-methylthiazol-5-yl)benzyl)pyrrolidine-2-carboxamide]	> 10 µM
O=C(CN1CCC(n2cc(-c3cnc4cccc(-c5cc(F)c(CN6CCOCC6)c(F)c5)c4n3)cn2)CC1)NCCCCCCNc1cccc2c1C(=O)N(C1CCC(=O)NC1=O)C2=O (stereo not shown) [JA-147, 2-(4-(4-(8-(3,5-Difluoro-4-(morpholinomethyl)phenyl)quinoxalin-2-yl)-1H-pyrazol-1-yl)piperidin-1-yl)-N-(6-((2-(2,6-dioxopiperidin-3-yl)-1,3-dioxoisoindolin-4-yl)amino)hexyl)acetamide]	> 10 µM
Cc1cnc(Nc2ccc(N3CCN(CC(=O)NCCOCCOCCNc4cccc5c4C(=O)N(C4CCC(=O)NC4=O)C5=O)CC3)cc2)nc1Nc1cccc(S(=O)(=O)NC(C)(C)C)c1 (stereo not shown) [JA-086, 2-(4-(4-((4-((3-(N-(tert-Butyl)sulfamoyl)phenyl)amino)-5-methylpyrimidin-2-yl)amino)phenyl)piperazin-1-yl)-N-(2-(2-(2-((2-(2,6-dioxopiperidin-3-yl)-1,3-dioxoisoindolin-4-yl)amino)ethoxy)ethoxy)ethyl)acetamide]	0.564 µM
Cc1cnc(Nc2ccc(N3CCN(C(=O)COCCOCC(=O)N[C@H](C(=O)N4C[C@H](O)C[C@H]4C(=O)NCc4ccc(-c5scnc5C)cc4)C(C)(C)C)CC3)cc2)nc1Nc1cccc(S(=O)(=O)NC(C)(C)C)c1 [JA-032, (2S,4R)-1-((S)-2-(2-(2-(2-(4-(4-((4-((3-(N-(tert-Butyl)sulfamoyl)phenyl)amino)-5-methylpyrimidin-2-yl)amino)phenyl)piperazin-1-yl)-2-oxoethoxy)ethoxy)acetamido)-3,3-dimethylbutanoyl)-4-hydroxy-N-(4-(4-methylthiazol-5-yl)benzyl)pyrrolidine-2-carboxamide]	> 10 µM
